Reference: PubChem BioAssay (NCI)
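Briefly, cells in 96-well plates were exposed to five compound concentrations for 48 h, and endpoints were estimated by linear interpolation. The concentration for full growth arrest is given as TGI.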

Experiments:
Assay in all cases: growth of human tumour cells (NCI), 48 h
NCI-H460 lung = tested on: NCI-H460 lung
MDA-MB-435 = tested on: MDA-MB-435
SR leukemia = tested on: SR leukemia
NCI-H522 lung = tested on: NCI-H522 lung
SK-MEL-28 melanoma = tested on: SK-MEL-28 melanoma
SK-OV-3 ovarian = tested on: SK-OV-3 ovarian
SK-MEL-2 melanoma = tested on: SK-MEL-2 melanoma
U251 CNS = tested on: U251 CNS
TK-10 renal = tested on: TK-10 renal
HCT-116 colon = tested on: HCT-116 colon
NCI/ADR-RES ovarian = tested on: NCI/ADR-RES ovarian
COLO 205 colon = tested on: COLO 205 colon
MOLT-4 leukemia = tested on: MOLT-4 leukemia
A549 NSCLC = tested on: A549 NSCLC
T-47D breast = tested on: T-47D breast
MCF7 breast = tested on: MCF7 breast
SF-539 CNS = tested on: SF-539 CNS
NCI-H23 lung = tested on: NCI-H23 lung
HOP-92 NSCLC = tested on: HOP-92 NSCLC

## ONC1=Nc2ccccc2C(=S)N2CSCC12 (stereo not drawn)
NCI-H460 lung
  TGI: 42.3 µM
MDA-MB-435
  TGI: 48.1 µM
SR leukemia
  TGI: 89 µM
NCI-H522 lung
  TGI: > 100 µM
SK-MEL-28 melanoma
  TGI: > 100 µM
SK-OV-3 ovarian
  TGI: > 100 µM
SK-MEL-2 melanoma
  TGI: > 100 µM
U251 CNS
  TGI: > 100 µM
TK-10 renal
  TGI: > 100 µM
HCT-116 colon
  TGI: > 100 µM
NCI/ADR-RES ovarian
  TGI: > 100 µM
COLO 205 colon
  TGI: > 100 µM
MOLT-4 leukemia
  TGI: > 100 µM
A549 NSCLC
  TGI: > 100 µM
T-47D breast
  TGI: > 100 µM
MCF7 breast
  TGI: > 100 µM

## COC(=O)C1Cc2ccc3c(c2C1=O)CCCC3 (stereo not drawn)
SF-539 CNS
  TGI: > 100 µM
NCI-H460 lung
  TGI: > 100 µM
MDA-MB-435
  TGI: > 100 µM
SR leukemia
  TGI: 82.9 µM
NCI-H522 lung
  TGI: > 100 µM
SK-MEL-28 melanoma
  TGI: > 100 µM
SK-OV-3 ovarian
  TGI: > 100 µM
SK-MEL-2 melanoma
  TGI: > 100 µM
U251 CNS
  TGI: > 100 µM
TK-10 renal
  TGI: > 100 µM
HCT-116 colon
  TGI: > 100 µM
NCI/ADR-RES ovarian
  TGI: > 100 µM
NCI-H23 lung
  TGI: > 100 µM
COLO 205 colon
  TGI: > 100 µM
MOLT-4 leukemia
  TGI: > 100 µM
A549 NSCLC
  TGI: > 100 µM
T-47D breast
  TGI: > 100 µM
MCF7 breast
  TGI: > 100 µM

## CCN(CC)C(=S)SC(C(=O)Nc1nnc(-c2ccccc2)o1)c1ccccc1 (stereo not drawn)
SF-539 CNS
  TGI: 65.9 µM
NCI-H460 lung
  TGI: 31.6 µM
MDA-MB-435
  TGI: 34.8 µM
SR leukemia
  TGI: 70.7 µM
NCI-H522 lung
  TGI: 49.2 µM
SK-MEL-28 melanoma
  TGI: 54.6 µM
SK-OV-3 ovarian
  TGI: > 100 µM
SK-MEL-2 melanoma
  TGI: 46.7 µM
U251 CNS
  TGI: 61.4 µM
TK-10 renal
  TGI: > 100 µM
HCT-116 colon
  TGI: 34.7 µM
NCI/ADR-RES ovarian
  TGI: 41.1 µM
NCI-H23 lung
  TGI: 34.2 µM
COLO 205 colon
  TGI: 84.4 µM
MOLT-4 leukemia
  TGI: > 100 µM
A549 NSCLC
  TGI: 35.7 µM
T-47D breast
  TGI: > 100 µM
MCF7 breast
  TGI: 47.7 µM

## Cn1c2ccccc2c(=O)c2cccc(C(=O)NCC(=O)O)c21
SF-539 CNS
  TGI: > 100 µM
NCI-H460 lung
  TGI: > 100 µM
MDA-MB-435
  TGI: > 100 µM
SR leukemia
  TGI: > 100 µM
SK-MEL-28 melanoma
  TGI: > 100 µM
SK-OV-3 ovarian
  TGI: > 100 µM
SK-MEL-2 melanoma
  TGI: > 100 µM
U251 CNS
  TGI: > 100 µM
TK-10 renal
  TGI: > 100 µM
HCT-116 colon
  TGI: > 100 µM
NCI/ADR-RES ovarian
  TGI: > 100 µM
NCI-H23 lung
  TGI: > 100 µM
COLO 205 colon
  TGI: > 100 µM
MOLT-4 leukemia
  TGI: > 100 µM
A549 NSCLC
  TGI: > 100 µM
T-47D breast
  TGI: > 100 µM
MCF7 breast
  TGI: > 100 µM

## Oc1c(Br)cc(/C=C/c2cccc(/C=C/c3cc(Br)c(O)c(Br)c3)n2)cc1Br
SF-539 CNS
  TGI: 26.6 µM
NCI-H460 lung
  TGI: 11.3 µM
MDA-MB-435
  TGI: 46.5 µM
SR leukemia
  TGI: 18.9 µM
SK-MEL-28 melanoma
  TGI: 58.6 µM
SK-OV-3 ovarian
  TGI: 62.9 µM
SK-MEL-2 melanoma
  TGI: 20.1 µM
U251 CNS
  TGI: 21.2 µM
TK-10 renal
  TGI: 56.3 µM
HCT-116 colon
  TGI: 21 µM
NCI/ADR-RES ovarian
  TGI: 85.6 µM
COLO 205 colon
  TGI: 32.1 µM
MOLT-4 leukemia
  TGI: 14.7 µM
A549 NSCLC
  TGI: 14.9 µM
HOP-92 NSCLC
  TGI: 29.6 µM
T-47D breast
  TGI: 31.4 µM
MCF7 breast
  TGI: 42.5 µM

## CC(C)(C)OC(=O)NCCCC(=O)NC1(c2cc3ccccc3s2)CCCCC1
SF-539 CNS
  TGI: 30.7 µM
NCI-H460 lung
  TGI: 40.1 µM
MDA-MB-435
  TGI: 33.1 µM
SR leukemia
  TGI: 27.9 µM
NCI-H522 lung
  TGI: 34.1 µM
SK-MEL-28 melanoma
  TGI: 31.3 µM
SK-OV-3 ovarian
  TGI: 99.5 µM
TK-10 renal
  TGI: 97.2 µM
HCT-116 colon
  TGI: 30.1 µM
NCI/ADR-RES ovarian
  TGI: 70 µM
NCI-H23 lung
  TGI: 51 µM
COLO 205 colon
  TGI: 29 µM
MOLT-4 leukemia
  TGI: 34.4 µM
A549 NSCLC
  TGI: > 100 µM
HOP-92 NSCLC
  TGI: 37.6 µM
T-47D breast
  TGI: > 100 µM
MCF7 breast
  TGI: 41 µM

## O=C1NC(N2CCCCC2)=N/C1=C\c1ccc(Cl)cc1
SF-539 CNS
  TGI: > 100 µM
MDA-MB-435
  TGI: > 100 µM
SR leukemia
  TGI: > 100 µM
NCI-H522 lung
  TGI: > 100 µM
SK-MEL-28 melanoma
  TGI: > 100 µM
SK-OV-3 ovarian
  TGI: > 100 µM
SK-MEL-2 melanoma
  TGI: > 100 µM
U251 CNS
  TGI: > 100 µM
TK-10 renal
  TGI: > 100 µM
HCT-116 colon
  TGI: 92.7 µM
NCI/ADR-RES ovarian
  TGI: > 100 µM
NCI-H23 lung
  TGI: > 100 µM
COLO 205 colon
  TGI: > 100 µM
MOLT-4 leukemia
  TGI: > 100 µM
A549 NSCLC
  TGI: > 100 µM
HOP-92 NSCLC
  TGI: 85.5 µM
T-47D breast
  TGI: > 100 µM
MCF7 breast
  TGI: > 100 µM

## CN(C)CCNC(=O)Cn1cnc2cccc([N+](=O)[O-])c2c1=O
SF-539 CNS
  TGI: > 100 µM
NCI-H460 lung
  TGI: > 100 µM
MDA-MB-435
  TGI: > 100 µM
SR leukemia
  TGI: > 100 µM
NCI-H522 lung
  TGI: > 100 µM
SK-MEL-28 melanoma
  TGI: > 100 µM
SK-OV-3 ovarian
  TGI: > 100 µM
SK-MEL-2 melanoma
  TGI: > 100 µM
U251 CNS
  TGI: > 100 µM
TK-10 renal
  TGI: > 100 µM
HCT-116 colon
  TGI: > 100 µM
NCI/ADR-RES ovarian
  TGI: > 100 µM
NCI-H23 lung
  TGI: > 100 µM
COLO 205 colon
  TGI: > 100 µM
MOLT-4 leukemia
  TGI: > 100 µM
A549 NSCLC
  TGI: > 100 µM
T-47D breast
  TGI: > 100 µM
MCF7 breast
  TGI: > 100 µM

## CN(C(=O)C1=CCC2(CC1)OCCO2)c1ccccc1I
NCI-H460 lung
  TGI: > 100 µM
MDA-MB-435
  TGI: > 100 µM
SR leukemia
  TGI: > 100 µM
NCI-H522 lung
  TGI: > 100 µM
SK-MEL-28 melanoma
  TGI: > 100 µM
SK-OV-3 ovarian
  TGI: > 100 µM
SK-MEL-2 melanoma
  TGI: > 100 µM
U251 CNS
  TGI: > 100 µM
TK-10 renal
  TGI: > 100 µM
HCT-116 colon
  TGI: > 100 µM
NCI/ADR-RES ovarian
  TGI: > 100 µM
NCI-H23 lung
  TGI: > 100 µM
COLO 205 colon
  TGI: > 100 µM
MOLT-4 leukemia
  TGI: > 100 µM
A549 NSCLC
  TGI: > 100 µM
HOP-92 NSCLC
  TGI: > 100 µM
T-47D breast
  TGI: > 100 µM
MCF7 breast
  TGI: > 100 µM

## O=C(CCc1ccccc1)n1cccc1CO
SF-539 CNS
  TGI: > 100 µM
NCI-H460 lung
  TGI: > 100 µM
MDA-MB-435
  TGI: > 100 µM
SR leukemia
  TGI: > 100 µM
NCI-H522 lung
  TGI: > 100 µM
SK-MEL-28 melanoma
  TGI: > 100 µM
SK-OV-3 ovarian
  TGI: > 100 µM
SK-MEL-2 melanoma
  TGI: > 100 µM
U251 CNS
  TGI: > 100 µM
TK-10 renal
  TGI: > 100 µM
HCT-116 colon
  TGI: > 100 µM
NCI/ADR-RES ovarian
  TGI: > 100 µM
NCI-H23 lung
  TGI: > 100 µM
COLO 205 colon
  TGI: > 100 µM
MOLT-4 leukemia
  TGI: > 100 µM
A549 NSCLC
  TGI: > 100 µM
T-47D breast
  TGI: > 100 µM
MCF7 breast
  TGI: > 100 µM

## CN(C)c1nncc2n[nH]nc12
SF-539 CNS
  TGI: > 100 µM
MDA-MB-435
  TGI: > 100 µM
SR leukemia
  TGI: > 100 µM
NCI-H522 lung
  TGI: > 100 µM
SK-MEL-28 melanoma
  TGI: > 100 µM
SK-OV-3 ovarian
  TGI: > 100 µM
SK-MEL-2 melanoma
  TGI: > 100 µM
U251 CNS
  TGI: > 100 µM
TK-10 renal
  TGI: > 100 µM
HCT-116 colon
  TGI: > 100 µM
NCI/ADR-RES ovarian
  TGI: > 100 µM
NCI-H23 lung
  TGI: > 100 µM
COLO 205 colon
  TGI: > 100 µM
MOLT-4 leukemia
  TGI: > 100 µM
A549 NSCLC
  TGI: > 100 µM
HOP-92 NSCLC
  TGI: > 100 µM
T-47D breast
  TGI: > 100 µM
MCF7 breast
  TGI: > 100 µM

## COc1ccc(NC(C)=O)c(C(O)CCNC(C)=O)c1 (stereo not drawn)
SF-539 CNS
  TGI: > 100 µM
NCI-H460 lung
  TGI: > 100 µM
MDA-MB-435
  TGI: > 100 µM
SR leukemia
  TGI: > 100 µM
NCI-H522 lung
  TGI: > 100 µM
SK-OV-3 ovarian
  TGI: > 100 µM
SK-MEL-2 melanoma
  TGI: > 100 µM
U251 CNS
  TGI: > 100 µM
TK-10 renal
  TGI: > 100 µM
HCT-116 colon
  TGI: > 100 µM
NCI/ADR-RES ovarian
  TGI: > 100 µM
NCI-H23 lung
  TGI: > 100 µM
COLO 205 colon
  TGI: > 100 µM
MOLT-4 leukemia
  TGI: > 100 µM
A549 NSCLC
  TGI: > 100 µM
HOP-92 NSCLC
  TGI: > 100 µM
T-47D breast
  TGI: > 100 µM
MCF7 breast
  TGI: > 100 µM

## CC(=O)OC[C@@]12Cc3ccc(C)c(O)c3[C@]1(C)[C@@H](OC(C)=O)[C@]1(O)[C@H]([C@@H](OC(=O)c3ccccc3)[C@@H](C)[C@H]1OC(C)=O)[C@H]2OC(C)=O
SF-539 CNS
  TGI: > 50 µM
NCI-H460 lung
  TGI: > 50 µM
MDA-MB-435
  TGI: > 50 µM
SR leukemia
  TGI: > 50 µM
NCI-H522 lung
  TGI: > 50 µM
SK-OV-3 ovarian
  TGI: > 50 µM
SK-MEL-2 melanoma
  TGI: > 50 µM
U251 CNS
  TGI: > 50 µM
TK-10 renal
  TGI: > 50 µM
HCT-116 colon
  TGI: > 50 µM
NCI/ADR-RES ovarian
  TGI: > 50 µM
NCI-H23 lung
  TGI: > 50 µM
COLO 205 colon
  TGI: > 50 µM
MOLT-4 leukemia
  TGI: > 50 µM
HOP-92 NSCLC
  TGI: > 50 µM
T-47D breast
  TGI: > 50 µM
MCF7 breast
  TGI: > 50 µM
